The values below come from publication PMC8342319, “Predicting blood-to-plasma concentration ratios of drugs from chemical structures and volumes of distribution in humans” (Molecular Diversity, 2021).

For data set [1] the following is noted: cited from earlier work.
Data set [2] relates to plasma protein. Description: Measurement of PPB by equilibrium dialysis in pooled human plasma (free fraction). The note with it: for fp_Human: footnote b: fu is our experimental data; for fraction unbound at 5 h, 5 µM: human. Background: In equilibrium dialysis free small molecules cross a membrane that holds back macromolecules.
Protocol: (§1) Pooled human plasma was obtained from heparinized blood from nine to ten healthy volunteers not medicated for at least seven days. The human blood collection and PPB experimental protocols were approved by the Ethical Review Committee of Japan Tobacco Inc, Central Pharmaceutical Research Institute. Informed consent was obtained from all subjects, and the PPB experiments were conducted in accordance with the Ethical Guidelines for Medical and Health Research Involving Human Subjects. Binding of compounds to plasma protein was evaluated by equilibrium dialysis utilizing a 96-well equilibrium dialysis unit and HTD96b dialysis membrane strips with a molecular cutoff of 12–14 kDa (HTDialysis, Gales Ferry, CT, USA). Plasma containing the compounds (final concentration of 5 µM) and buffer (Dulbecco’s phosphate-buffered saline; Thermo Fisher Scientific, Waltham, MA) were added into the donor and receiver cells, respectively. Following dialysis for 5 h at 37 °C, the concentrations of the compounds in the plasma and buffer were determined by liquid chromatography–tandem mass spectrometry (LC–MS/MS) (Acquity™ Ultra Performance LC I-Class and Xevo TQ-S; Waters, Milford, MA). The percentage of free fraction (fu) was calculated according to the following equation [17]:1 Freefraction(fu,%)=Concentrationofbuffer/Concentrationofplasma×100
The conditions of data set [3]: human.
The conditions of data set [4]: human, cited from earlier work.
The nature of data set [5]: Measurement of Rb (blood-to-plasma concentration ratio) in spiked human blood, LC-MS/MS. The note with it: footnote a: Rb is our experimental data; for blood plasma ratio at 30 min, 5 µM: read-out: Rb_Human (blood-to-plasma concentration ratio); for Rb_Human: blood-to-plasma concentration ratio. The class given is in vitro ADME. As for the experimental part:
Heparinized blood was collected from three to seven healthy volunteers not medicated for at least seven days. […] The blood was spiked with the compounds (final concentration of 5 µM) and incubated at 37 °C for 30 min. Following incubation, the samples were centrifuged at 5000 rpm for 5 min to obtain plasma. Subsequently, the concentrations of the compounds in the plasma were determined by LC–MS/MS using the same method as described for the measurement of PPB. Rb was calculated according to Eq. (2).

The conditions of data set [6]: human; median if multiple values were reported; ref numbers in Table S1; cited from earlier work.
For data set [7], the system named is plasma protein. Description: in vitro. The note with it: human.
Protocol: as §1
Setting [8] is: human, intravenous, median if multiple values were reported, ref numbers in Table S1.
The mark [9] stands for this setting: intravenous, median if multiple values were reported, ref numbers in Table S1.
Where [10] appears, read: human, intravenous, median if multiple values reported, Reference of Table S1.
Setting [11] is: intravenous, median if multiple values reported, Reference of Table S1.

In general, fraction unbound refers to the share of the substance not bound to proteins or other matrix. A high value points to weak binding.

Like-named read-outs stand apart in the source and are kept apart here.

As for `Cc1cc(O)c(C(=O)N[C@@H](C(=O)N[C@@H]2C(=O)N3C(C(=O)O)=C(CSc4nnnn4C)CS[C@H]23)c2ccc(O)cc2)cn1` [Cefpiramide], the “in vivo CL_(L/hr/kg)_Human” value in data set [1] (setting [8]) is 0.029 L/h/kg. In the data set on plasma protein [2] (human plasma free fraction), the fp_Human came to 0.039. Moreover, the free fraction (fraction unbound) at 5 h, 5 µM in the data set with plasma protein [2] (pooled human plasma) is 0.039. Moreover, in data set [3], the “in vivo MRT_(hr)_Human” value is 4.514 h. Besides, in data set [4] (setting [9]), the “in vivo Vd_(L/kg)_Human” value was 0.130 L/kg. Further, in data set [5] (heparinized human whole blood), the blood plasma ratio at 30 min, 5 µM came to 0.53.
As for `CO/N=C(\C(=O)N[C@@H]1C(=O)N2C(C(=O)O)=CCS[C@H]12)c1csc(N)n1` [Ceftizoxime], in data set [1] (setting [8]), the “in vivo CL_(L/hr/kg)_Human” value was 0.126 L/h/kg. In addition, in the data set on plasma protein [2] (human plasma free fraction), the fp_Human was determined as 0.995. In the data set with plasma protein [2] (pooled human plasma), this compound showed a fraction unbound at 5 h, 5 µM of 0.995. The “in vivo MRT_(hr)_Human” value in data set [3] turned out to be 1.706 h. In addition, in data set [4] (setting [9]), the “in vivo Vd_(L/kg)_Human” value is on record as 0.215 L/kg. The blood plasma ratio at 30 min, 5 µM in data set [5] (heparinized human whole blood) was found to be 0.54.
`CN(C)CCCC1(c2ccc(F)cc2)OCc2cc(C#N)ccc21` (stereo not shown) [Citalopram]: the “in vivo CL_(L/hr/kg)_Human” value in data set [1] (setting [8]) was 0.258 L/h/kg. Further, the fp_Human with plasma protein [2] (human plasma free fraction) is reported as 0.396. The same compound showed a free fraction (fraction unbound) at 5 h, 5 µM in the data set on plasma protein [2] (pooled human plasma) of 0.396. For the same compound, the “in vivo MRT_(hr)_Human” value in data set [3] is 50.388 h. The “in vivo Vd_(L/kg)_Human” value in data set [4] (setting [9]) is given as 13.000 L/kg. Further, in data set [5] (heparinized human whole blood), the blood plasma ratio at 30 min, 5 µM came out at 1.39.
As to `O=P1(N(CCCl)CCCl)NCCCO1` (stereo not shown) [Cyclophosphamide], the “in vivo CL_(L/hr/kg)_Human” value in data set [1] (in vivo, iv) is 0.078 L/h/kg. The fp_Human with plasma protein [2] (human plasma free fraction) is on record as 0.928. In the data set on plasma protein [2] (plasma), this compound yielded a fraction unbound at 5 h, 5 µM of 0.928. Moreover, in data set [3], the “in vivo MRT_(hr)_Human” value worked out at 10.833 h. In addition, in data set [4] (in vivo, iv), the “in vivo Vd_(L/kg)_Human” value was 0.715 L/kg. Besides, the blood plasma ratio at 30 min, 5 µM in data set [5] (plasma) was 0.92.
In the case of `O=C(O)Cc1ccccc1Nc1c(Cl)cccc1Cl` [Diclofenac], the “in vivo CL_(L/hr/kg)_Human” value in data set [1] (setting [8]) was 0.210 L/h/kg. The same compound showed a fp_Human with plasma protein [2] (human plasma free fraction) of 0.00216. Further, the fraction unbound at 5 h, 5 µM in the data set on plasma protein [2] (pooled human plasma) came out at 0.00216. In addition, in data set [3], the “in vivo MRT_(hr)_Human” value was found to be 1.048 h. Also, the “in vivo Vd_(L/kg)_Human” value in data set [4] (setting [9]) was 0.220 L/kg. In data set [5] (heparinized human whole blood), the blood plasma ratio at 30 min, 5 µM was 0.6.
`CC(C)N(CCC(C(N)=O)(c1ccccc1)c1ccccn1)C(C)C` (stereo not shown) [Disopyramide]: the “in vivo CL_(L/hr/kg)_Human” value in data set [1] (setting [8]) was 0.099 L/h/kg. The fp_Human with plasma protein [2] (human plasma free fraction) is on record as 0.204. Further, the fraction unbound at 5 h, 5 µM in the data set on plasma protein [2] (pooled human plasma) was determined as 0.204. For the same compound, the “in vivo MRT_(hr)_Human” value in data set [3] is 12.037 h. Moreover, the “in vivo Vd_(L/kg)_Human” value in data set [4] (setting [9]) is 0.650 L/kg. Also, in data set [5] (heparinized human whole blood), the blood plasma ratio at 30 min, 5 µM stood at 0.81.
Take `NC(N)=Nc1nc(CSCCC(N)=NS(N)(=O)=O)cs1` [Famotidine]: the “in vivo CL_(L/hr/kg)_Human” value in data set [1] (setting [8]) was 0.396 L/h/kg. This compound also returned a fp_Human in the data set on plasma protein [2] (human plasma free fraction) of 1.000. The compound also displayed a fraction unbound at 5 h, 5 µM in the data set with plasma protein [2] (pooled human plasma) of 1. The “in vivo MRT_(hr)_Human” value in data set [3] was 3.030 h. Further, in data set [4] (setting [9]), the “in vivo Vd_(L/kg)_Human” value was 1.200 L/kg. The blood plasma ratio at 30 min, 5 µM in data set [5] (heparinized human whole blood) worked out at 0.74.
`NCC1(CC(=O)O)CCCCC1` [Gabapentin]: the “Rb_Human (blood-to-plasma concentration ratio)” value in data set [6] is reported as 1.10. The “in vivo CL_(L/hr/kg)_Human” value in data set [1] (setting [8]) was 0.102 L/h/kg. This compound showed a fp_Human in the data set on plasma protein [2] (human plasma free fraction) of 1.000. For the same compound, the “in vivo MRT_(hr)_Human” value in data set [3] was 7.500 h. In addition, the “in vivo Vd_(L/kg)_Human” value in data set [4] (in vivo, iv) is reported as 0.765 L/kg. This compound registered a fraction unbound in the data set on plasma protein [7] of 1.
In the case of `C[C@H]1NCc2cc(-c3ccc4c(=O)c(C(=O)O)cn(C5CC5)c4c3OC(F)F)ccc21` [Garenoxacin], the “in vivo CL_(L/hr/kg)_Human” value in data set [1] (setting [8]) was 0.074 L/h/kg. In the data set on plasma protein [2] (human plasma free fraction), this compound had a fp_Human of 0.236. The compound also showed a fraction unbound at 5 h, 5 µM in the data set with plasma protein [2] (pooled human plasma) of 0.236. Besides, in data set [3], the “in vivo MRT_(hr)_Human” value came to 13.550 h. Moreover, the “in vivo Vd_(L/kg)_Human” value in data set [4] (setting [9]) is 1.000 L/kg. Moreover, in data set [5] (heparinized human whole blood), the blood plasma ratio at 30 min, 5 µM is 0.72.
Take `COc1ccc2c(c1)c(CC(=O)O)c(C)n2C(=O)c1ccc(Cl)cc1` [Indomethacin]: in data set [1] (setting [8]), the “in vivo CL_(L/hr/kg)_Human” value is 0.095 L/h/kg. Further, in the data set on plasma protein [2] (human plasma free fraction), the fp_Human is 0.00361. For the same compound, in the data set with plasma protein [2] (pooled human plasma), the unbound share (fraction unbound) at 5 h, 5 µM is 0.00361. Moreover, the “in vivo MRT_(hr)_Human” value in data set [3] came to 4.958 h. The “in vivo Vd_(L/kg)_Human” value in data set [4] (setting [9]) is given as 0.595 L/kg. Further, the blood plasma ratio at 30 min, 5 µM in data set [5] (heparinized human whole blood) came to 0.59.
On to `CC1CCCC(C)N1CCCC(O)(c1ccccc1)c1ccccn1` (stereo not shown) [Pirmenol], for which the “in vivo CL_(L/hr/kg)_Human” value in data set [1] (setting [10]) was 0.108 L/h/kg. The same compound showed a fp_Human in the data set with plasma protein [2] (free fraction in human plasma) of 0.339. In addition, the “in vivo MRT_(hr)_Human” value in data set [3] was 12.500 h. For the same compound, the “in vivo Vd_(L/kg)_Human” value in data set [4] (setting [11]) is 1.350 L/kg. Also, in data set [5], the Rb_Human was 0.86.
With `CC(C)NCC(O)COc1cccc2ccccc12` (stereo not shown) [Propranolol], the “in vivo CL_(L/hr/kg)_Human” value in data set [1] (setting [10]) was 0.720 L/h/kg. In the data set with plasma protein [2] (free fraction in human plasma), this compound came in with a fp_Human of 0.098. Moreover, the “in vivo MRT_(hr)_Human” value in data set [3] stood at 4.653 h. Moreover, in data set [4] (setting [11]), the “in vivo Vd_(L/kg)_Human” value is recorded as 3.350 L/kg. For the same compound, the Rb_Human in data set [5] came to 1.08.
